Test [1] addresses T1, GTPase HRas (Homo sapiens, UniProt P01112). The experiment in a line: Inhibition of nucleotide exchange process of oncogenic Ras in vitro.
For test [2], the target named is T1, GTPase HRas. The experiment in a line: Inhibition of nucleotide exchange process of oncogenic Ras at concentration 50 uM.
Test [3] concerns the target T1, GTPase HRas. The experiment in a line: In vitro for inhibition of nucleotide exchange process of oncogenic Ras.

T1 sequence (P01112 whole entry, looked up): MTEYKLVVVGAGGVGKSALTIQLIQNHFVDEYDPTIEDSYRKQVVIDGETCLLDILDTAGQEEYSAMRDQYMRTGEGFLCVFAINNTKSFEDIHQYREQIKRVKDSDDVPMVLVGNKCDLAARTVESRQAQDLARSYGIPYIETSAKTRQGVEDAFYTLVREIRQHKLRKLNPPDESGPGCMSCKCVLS

For `CCOC(=O)/C=C/C[C@@H]1CN(Sc2ccccc2[N+](=O)[O-])C[C@H](n2nc(C)c3c(Cl)c4cc(OC)ccc4nc32)O1`, the IC50 against GTPase HRas [1] was 16 µM.
On the same count and under the same terms, in the case of `COc1ccc2nc3c(c(C)nn3[C@H]3CN(Sc4ccccc4[N+](=O)[O-])C[C@@H](C/C=C/C(=O)c4ccccc4)O3)c(Cl)c2c1` it was 4.7 µM.
At GTPase HRas [2], `COc1ccc2nc3c(c(C)nn3[C@H]3CN(Sc4ccccc4[N+](=O)[O-])C[C@@H](C/C=C/C(C)=O)O3)c(Cl)c2c1` came in with an inhibition of 88%.
The compound `COc1ccc2nc3c(c(C)nn3[C@@H]3O[C@H](O/C=C/C(=O)c4ccccc4)[C@@H](O)[C@H]3O)c(Cl)c2c1` registered a 50% inhibitory concentration (IC50) against GTPase HRas [1] of 10 µM.
Compound `COc1ccc2nc3c(c(C)nn3[C@H]3CN(Sc4ccc([N+](=O)[O-])cc4)C[C@@H](CO)O3)c(Cl)c2c1` registered an IC50 against GTPase HRas [1] of 6.7 µM.
`COc1ccc2nc3c(c(C)nn3[C@H]3C=C[C@@H](OCCC(=O)c4ccccc4)O3)c(Cl)c2c1` showed an inhibition on GTPase HRas [2] of 25%.
In turn, `COc1ccc2nc3c(c(C)nn3[C@@H]3O[C@H](COC(=O)c4ccccc4)[C@H]4OC(=S)O[C@H]43)c(Cl)c2c1` gave an IC50 at GTPase HRas [1] of 15 µM.
Same read-out and setting: in the case of `COc1ccc2nc3c(c(C)nn3[C@H]3CN(S(=O)(=O)c4ccc([N+](=O)[O-])cc4)C[C@@H](CO)O3)c(Cl)c2c1` it was 8 µM; in that of `COc1ccc2nc3c(c(C)nn3[C@H]3CN(S(=O)(=O)c4ccccc4)C[C@@H](CO[Si](C)(C)C(C)(C)C)O3)c(Cl)c2c1`, 14 µM.
At GTPase HRas [1], `COc1ccc2nc3c(c(C)nn3[C@H]3CN(S(=O)(=O)c4ccc([N+](=O)[O-])cc4)C[C@@H](C/C=C/C(=O)c4ccccc4)O3)c(Cl)c2c1` yielded a half-inhibitory concentration (IC50) of 7 µM.
Compound `COc1ccc2nc3c(c(C)nn3[C@H]3CC[C@@H](COC(=O)c4ccccc4)O3)c(Cl)c2c1` came in with an inhibition at GTPase HRas [2] of 38%.
Same read-out and setting: the figure for `COc1ccc2nc3c(c(C)nn3[C@@H]3O[C@H](OCc4ccccc4)[C@@H](OCc4ccccc4)[C@H]3OCc3ccccc3)c(Cl)c2c1` is 35%.
As for `COc1ccc2nc3c(c(C)nn3[C@H]3CN(Sc4ccc([N+](=O)[O-])cc4)C[C@@H](C/C=C/C(C)=O)O3)c(Cl)c2c1`, the half-maximal inhibitory concentration (IC50) on GTPase HRas [1] is 3 µM. This counts as single-digit micromolar.
`COc1ccc2nc3c(c(C)nn3[C@@H]3O[C@H](COC(=O)c4ccco4)[C@@H](OC(=O)c4ccco4)[C@H]3OC(=O)c3ccco3)c(Cl)c2c1` displayed an IC50 against GTPase HRas [1] of 10.5 µM.
Turning to `COc1ccc2nc3c(c(C)nn3[C@@H]3O[C@H](COC(C)=O)[C@@H](OC(C)=O)[C@H]3OC(C)=O)c(Cl)c2c1`, on GTPase HRas [2], the inhibition was 3%.
For the compound `COc1ccc2nc3c(c(C)nn3[C@@H]3O[C@H](COC(=O)C(C)C)[C@@H](OC(=O)C(C)C)[C@H]3OC(=O)C(C)C)c(Cl)c2c1`, the inhibition on GTPase HRas [2] was determined as 33%.
In the case of `COc1ccc2nc3c(c(C)nn3[C@@H]3O[C@H](COC(=O)c4ccoc4)[C@@H](OC(=O)c4ccoc4)[C@H]3OC(=O)c3ccoc3)c(Cl)c2c1`, on GTPase HRas [2], the inhibition turned out to be 49%.
Still for that read-out and setting: in the case of `COc1ccc2nc3c(c(C)nn3[C@@H]3O[C@H](O/C=C/C(=O)c4ccccc4)[C@H]4OC(C)(C)O[C@H]43)c(Cl)c2c1` it was 53%.
At GTPase HRas [1], `COc1ccc2nc3c(c(C)nn3[C@H]3CN(Sc4ccc([N+](=O)[O-])cc4)C[C@@H](C/C=C/C(=O)c4ccccc4)O3)c(Cl)c2c1` yielded an IC50 of 7.4 µM.
On GTPase HRas [2], `COc1ccc2nc3c(c(C)nn3[C@H]3CN(S(=O)(=O)c4ccccc4)C[C@@H](COC(=O)c4ccccc4)O3)c(Cl)c2c1` returned an inhibition of 47%.
Same read-out and setting: the figure for `COc1ccc2nc3c(c(C)nn3[C@H]3CNC[C@@H](CO)O3)c(Cl)c2c1` is 0%.
`COc1ccc2nc3c(c(C)nn3[C@@H]3O[C@H](COC(=O)c4ccccc4)[C@@H](OC(=O)c4ccccc4)[C@H]3OC(=O)c3ccccc3)c(Cl)c2c1` came in with an IC50 against GTPase HRas [3] of 10 µM.
As to `COc1ccc2nc3c(c(C)nn3[C@@H]3O[C@H](COC(=O)c4ccc([N+](=O)[O-])cc4)[C@@H](OC(=O)c4ccc([N+](=O)[O-])cc4)[C@H]3OC(=O)c3ccc([N+](=O)[O-])cc3)c(Cl)c2c1`, the inhibition against GTPase HRas [2] is 59%.
As to `COc1ccc2nc3c(c(C)nn3[C@H]3CN(S(=O)(=O)c4ccc(NC(C)=O)cc4)C[C@@H](CO[Si](C)(C)C(C)(C)C)O3)c(Cl)c2c1`, inhibition on GTPase HRas [1] was half-maximal at 27 µM (IC50).
Same read-out and setting: in the case of `COc1ccc2nc3c(c(C)nn3[C@H]3CN(Sc4ccccc4[N+](=O)[O-])C[C@@H](CO)O3)c(Cl)c2c1` it was 14 µM.
`COc1ccc2nc3c(c(C)nn3[C@@H]3O[C@H](COC(=O)c4ccccc4)[C@@H](OC(C)=O)[C@H]3OC(C)=O)c(Cl)c2c1` came in with an inhibition at GTPase HRas [2] of 44%.
As to `COc1ccc2nc3c(c(C)nn3[C@@H]3O[C@H](OC(O)CC(=O)c4ccccc4)[C@H]4OC(=S)O[C@H]43)c(Cl)c2c1` (stereo not given in full), the IC50 against GTPase HRas [1] came to 1.5 µM.
Same read-out and setting: the figure for `COc1ccc2nc3c(c(C)nn3[C@H]3C=C[C@@H](COC(=O)c4ccccc4)O3)c(Cl)c2c1` is 80 µM.
Regarding `COc1ccc2nc3c(c(C)nn3[C@@H]3O[C@H](COC(=O)c4cccnc4)[C@@H](OC(=O)c4cccnc4)[C@H]3OC(=O)c3cccnc3)c(Cl)c2c1`, at GTPase HRas [2], the inhibition worked out at 33%.
On the same count and under the same terms, in the case of `COc1ccc(C(=O)OC[C@H]2O[C@@H](n3nc(C)c4c(Cl)c5cc(OC)ccc5nc43)[C@H](OC(=O)c3ccc(OC)cc3)[C@@H]2OC(=O)c2ccc(OC)cc2)cc1` it was 44%.
On GTPase HRas [1], `COc1ccc2nc3c(c(C)nn3[C@H]3CN(Sc4ccc([N+](=O)[O-])cc4)C[C@@H](CO[Si](C)(C)C(C)(C)C)O3)c(Cl)c2c1` returned an IC50 of 50 µM.
For the compound `CCOC(=O)/C=C/C[C@@H]1CN(Sc2ccc([N+](=O)[O-])cc2)C[C@H](n2nc(C)c3c(Cl)c4cc(OC)ccc4nc32)O1`, the inhibition against GTPase HRas [2] was found to be 64%.
Still for that read-out and setting: in the case of `COc1ccc2nc3c(c(C)nn3[C@H]3C=C[C@@H](OC(O)CC(=O)c4ccccc4)O3)c(Cl)c2c1` (stereo not given in full) it was 48%.
For the compound `COc1ccc2nc3c(c(C)nn3[C@H]3CN(Sc4ccccc4[N+](=O)[O-])C[C@@H](CO[Si](C)(C)C(C)(C)C)O3)c(Cl)c2c1`, at GTPase HRas [1], the IC50 stood at 1 µM.
The compound `COc1ccc2nc3c(c(C)nn3[C@H]3CN(S(=O)(=O)c4ccccc4)C[C@@H](CO)O3)c(Cl)c2c1` gave an IC50 at GTPase HRas [1] of 12 µM.
In turn, `COc1ccc2nc3c(c(C)nn3[C@@H]3O[C@H](COC(=O)c4ccccc4)[C@@H](O)[C@H]3O)c(Cl)c2c1` had an inhibition against GTPase HRas [2] of 16%.
Still for that read-out and setting: in the case of `COc1ccc2nc3c(c(C)nn3[C@@H]3O[C@H](COC(=O)c4ccccc4)[C@@H](OCc4ccccc4)[C@H]3OCc3ccccc3)c(Cl)c2c1` it was 53%.
Regarding `COc1ccc2nc3c(c(C)nn3[C@H]3CN(S(=O)(=O)c4ccc([N+](=O)[O-])cc4)C[C@@H](CO[Si](C)(C)C(C)(C)C)O3)c(Cl)c2c1`, the midpoint of inhibition against GTPase HRas [1], the IC50, lay at 5 µM. This counts as single-digit micromolar.
Regarding `COc1ccc2nc3c(c(C)nn3[C@@H]3O[C@H](COC(=O)Cc4ccccc4)[C@@H](OC(=O)Cc4ccccc4)[C@H]3OC(=O)Cc3ccccc3)c(Cl)c2c1`, on GTPase HRas [2], the inhibition was 62%.
In the case of `COc1ccc2nc3c(c(C)nn3[C@H]3C=C[C@@H](O/C=C/C(=O)c4ccccc4)O3)c(Cl)c2c1`, 35 µM corresponded to half-maximal inhibition against GTPase HRas [1] (IC50).

The IC50 is the point on the concentration scale where inhibition reaches its midpoint. A lower IC50 goes with greater potency. In general, inhibition refers to how much of the control response was suppressed. Low readings indicate a weak effect, high ones a strong effect.

The values are drawn from ChEMBL document CHEMBL1151524, “Synthesis and evaluation of pyrazolo[3,4-b]quinoline ribofuranosides and their derivatives as inhibitors of oncogenic Ras” (Bioorg Med Chem Lett, 1996).
